# Measurements reported in BindingDB's records for doi:10.1016/j.bmcl.2005.06.044 (The University of Tokyo, 2005).
# Assay: Androgen antagonistic activity as inhibitory concentration against testosterone-induced SC-3 cell proliferation
row,Structure (SMILES),IC50 [µM]
1,CCC(CC)(c1ccc(NCC(=O)C(C)(C)C)c(C)c1)c1ccc(NCC(=O)C(C)(C)C)c(C)c1,1
2,"CCC(CC)(c1ccc(NCCC(C)(C)O)c(C)c1)c1ccc(OCC(=O)C(C)(C)C)c(C)c1 [1-(4-{1-Ethyl-1-[4-(3-hydroxy-3-methyl-butylamino)-3-methyl-phenyl]-propyl}-2-methyl-phenoxy)-3,3-dimethyl-butan-2-one]",0.82
3,"CCC(CC)(c1ccc(NCC(O)CO)c(C)c1)c1ccc(OCC(O)C(C)(C)C)c(C)c1 (centres undefined) [3-(4-{1-Ethyl-1-[4-(2-hydroxy-3,3-dimethyl-butoxy)-3-methyl-phenyl]-propyl}-2-methyl-phenylamino)-propane-1,2-diol]",0.009
4,"CCC(CC)(c1ccc(OC[C@H](O)CO)c(C)c1)c1ccc(OC[C@H](O)C(C)(C)C)c(C)c1 [(R)-3-(4-(3-(4-((R)-2-hydroxy-3,3-dimethylbutoxy)-3-methylphenyl)pentan-3-yl)-2-methylphenoxy)propane-1,2-diol]",0.019
5,CCC(CC)(c1ccc(OCC(=O)C(C)(C)C)c(C)c1)c1ccc(OCC(=O)C(C)(C)C)c(C)c1 [LG190155],1.9

# The remaining molecules from weak to strong by IC50, led by results:
row,IC50 [µM],Structure (SMILES)
1,6.8,CCC(CC)(c1ccc(NCCC(C)(C)O)c(C)c1)c1ccc(NCCC(C)(C)O)c(C)c1 [4-(4-{1-Ethyl-1-[4-(3-hydroxy-3-methyl-butylamino)-3-methyl-phenyl]-propyl}-2-methyl-phenylamino)-2-methyl-butan-2-ol]
2,3.5,CCC(CC)(c1ccc(O)c(C)c1)c1ccc(NCC(=O)C(C)(C)C)c(C)c1
3,1.2,CCC(CC)(c1ccc(NCC(=O)C(C)(C)C)c(C)c1)c1ccc(OCC(=O)C(C)(C)C)c(C)c1
4,1,CCC(CC)(c1ccc(NCC(O)C(C)(C)C)c(C)c1)c1ccc(NCC(O)C(C)(C)C)c(C)c1 (centres undefined)
